PMC8573170 (The Journal of Biological Chemistry, 2021)
“Also recorded” adds a separate entry of the source. Values belong to the molecule of their own block, whether it stands above or below them.

Tests used:
α-thrombin [1] = target: T1, α-thrombin (Homo sapiens, UniProt P00734); test: SPR, peptides passed over immobilized thrombin; assay type: binding; settings: thrombin amine-coupled on CM5 chip; peptides 0-50 nM; single cycle; compared with biotinylated XC-43 surface
Method: Evaluation of binding kinetics by SPR was performed using a Biacore T200 instrument. Synthetic XC-43 containing covalently linked biotin at the N-terminal amino group and the ε-amino group of Lys 1 was bound to a surface of immobilized neutravidin on a CM-5 chip. After conditioning, human α-thrombin was passed over the surface, and kinetic data were collected in single cycle mode using a running buffer of 10 mM HEPES pH 7.4, 150 mM NaCl (HBS). The data were fit to a 1:1 Langmuir binding model. Binding was also analyzed after immobilization of α-thrombin on a CM-5 chip using amine coupling methodology. XC-42 and XC-43 were passed over the surface, and data were collected in the single cycle mode using HBS as a running buffer. The data were fit to a 1:1 binding model as described above.
Figure S2: Surface pl asmon resonanc e in the single cycle mode of (A) XC -42 or (B) XC-43 binding to thrombin immobilized on a CM5 chip surface. Exp erimental data are shown as a solid grey line while the calculated fit is shown as a dashed line (C) Th e kinetic param eters w ere estimated by fitting a 1:1 binding model. Peptide concentrations for each experiment were, 0 nM, 6.25 nM, 12.5 nM, 25 nM, 50 nM.
(§1) (1 picture or pasted object on this page, not shown here)

thrombin = thrombin (Homo sapiens, UniProt P00734); test: Cleavage of peptides by thrombin in solution, measured by mass spectrometry; assay type: in vitro ADME; settings: 25 μM peptide, 1 μM thrombin (25:1); 2 h at 37 °C; 25 mM Tris-HCl pH 8.0, 150 mM NaCl; ESI-MS
Method: To detect cleavage of XC-42 and XC-43 by thrombin in solution, we incubated each peptide separately at a concentration of 25 μM in the presence of thrombin (1 μM) in 25 mM Tris-HCl pH 8.0 containing 150 mM NaCl for 2 h at 37 °C. Reactions were stopped by adjusting the pH to 2.0 with the addition of TFA. A Q Exactive plus (Thermo Fisher Scientific) mass spectrometer was used to carry out ESI-MS experiments. The instrument was operated at a resolution of 280k, spray voltage of 3.5 kV, and capillary temperature of 250 °C. Samples were desalted by C18 Zip-tip (Millipore) and dissolved in 200 μl of reconstitution buffer (50% acetonitrile, 49% water, 1% TFA). Samples were introduced using a syringe pump (Thermo Fisher Scientific) with a flow rate of 5 μl/min. Xtract was used to deconvolute the raw data.

Wistar rats [2] = test: Tail bleeding assay; assay type: in vivo; settings: rat; for increased tail bleeding vs PBS-injected animals: 30 min posttreatment, absorbance 540 nm
Method: The tail bleeding assay was performed with 24 animals kept at 37 °C under general anesthesia with isoflurane vaporized in 100% oxygen at a dose of 5% for induction and 2% for maintenance (flow rate of 0.5 l/min). These animals were randomly distributed into four groups (n = 6 per group) and injected intraperitoneally (300 μl) with: (i) PBS; (ii) heparin (50 μg/kg); (iii) XC-43 (0.5 mg/kg); or (iv) XC-43 (1 mg/kg). After 30 min posttreatment, a medium depth incision was performed at 3 mm from the tip of the animals' tail; the tail was submerged in a test tube containing saline solution (4 ml) and maintained for 30 min. Then, samples from saline solution were appropriately diluted and the absorbance at 540 nm was determined spectrophotometrically.

α-thrombin [3] = target: T1, α-thrombin; test: Kinetic assay of thrombin-catalyzed hydrolysis of S-2238 (Morrison equation); assay type: biochemical; parameters: Kinetic assays were performed using human α-thrombin (Enzyme Research Laboratories); purchased Enzyme Research Laboratories; settings: summary statement in the abstract; fast, tight-binding inhibitor; read-out: dissociation constant for thrombin (abstract)
Method: All reactions were performed at 30 °C. Kinetic assays were performed using human α-thrombin (Enzyme Research Laboratories) and chromogenic substrate S-2238 (Diapharma) using a Thermomax micro plate reader (Molecular Devices). Reactions were performed in 100 μl of TBS buffer (10 mM Tris, 0.15 M NaCl, pH 7.4) containing 0.01% Tween-20. XC-43 (0–3.2 nM) or 0 to 15 pairs of X.cheopis salivary glands were incubated with human α-thrombin (0.2 nM) at 30 °C for 5 min followed by addition of S-2238 (50, 100, 200, 400, and 600 μM). Reactions were followed for 30 min. The inhibitory constants were determined by fitting the nonlinear regression model according to the Morrison’s equation ([43]) using the GraphPad Prism software (GraphPad Software, Inc).

α-thrombin [4] = target: T1, α-thrombin; test: Isothermal titration calorimetry; parameters: Kinetic assays were performed using human α-thrombin (Enzyme Research Laboratories); purchased Enzyme Research Laboratories; settings: using a maximum c value of 500; single binding site; read-out: KD, ITC bound
Method: Isothermal titration calorimetric experiments were performed with a Microcal VP-ITC instrument at 30 °C. Human α-thrombin and XC-43 were dissolved in PBS, pH 7.4 at concentrations of 1 μM and 10 μM, respectively. XC-43 was added as 10-μl injections to the protein sample contained in the calorimeter cell. Calculated injection enthalpies were fit to a single-site binding model in the Microcal data evaluation software.
Figure S3: Analysis of XC-43 binding with thrombin using isothermal titration calorimetry. XC-43 (10 µM) was added to a solution of thrombin (1 µM) in a series of 10 µl injections. Heats were record ed on a VP -IT C MicroCalorimeter and the data fitted using a singl e binding site model. The high affinity makes the magnitude […]
association constant (K) must be ≥ 5 × 10 8 M −1 ( KD ≤ 2 nM ) with a single peptide binding site per thrombin […]
as §1

α-thrombin [5] = test: XC-43-thrombin complex assembled in 10 mM HEPES pH 7.4, crystallized in 0.2 M magnesium acetate, 9% PEG 8000 (measured pH ∼ 7); settings: human, room temperature
α-thrombin [6] = test: thrombin (1 μM) in 25 mM Tris-HCl pH 8.0 containing 150 mM NaCl; settings: human, 37 °C, up to 2 h
Wistar rats [7] = test: Ex vivo aPTT of plasma from treated rats; assay type: in vivo; settings: rat; heparin 50 μg/kg intraperitoneal; 2 and 12 h posttreatment
Method: A total number of 24 animals were randomly distributed into four groups (n= 6 per group) and injected intraperitoneally (300 μl) with: (i) PBS; (ii) heparin (50 μg/kg); (iii) XC-43 (0.5 mg/kg); or (iv) XC-43 (1.0 mg/kg). Animals were anesthetized with isoflurane (5% for induction; 2% for maintenance) and blood samples were obtained at 0, 2, 12, and 24 h posttreatment in 1:10 (v/v) 3.8% trisodium citrate. The PPP was obtained by blood centrifugation (1500g for 10 min) and the aPTT evaluated using the APTT ellagic kit (Wiener Lab). Clot formation was monitored at 650 nm using a SpectraMax M3 (Molecular Devices).

Molecule: CC[C@H](C)[C@H](NC(=O)[C@@H]1CCCN1C(=O)[C@H](CCC(=O)O)NC(=O)[C@H](CCSC)NC(=O)CNC(=O)[C@H](CC(N)=O)NC(=O)CNC(=O)CNC(=O)[C@H](CCC(=O)O)NC(=O)CNC(=O)[C@H](CCCNC(=N)N)NC(=O)[C@H](CCC(N)=O)NC(=O)[C@H](Cc1ccc(O)cc1)NC(=O)[C@H](CC(C)C)NC(=O)[C@H](CCCCN)NC(=O)[C@@H]1CCCN1C(=O)[C@H](CCC(N)=O)NC(=O)[C@H](C)NC(=O)[C@@H](NC(=O)[C@H](CCC(=O)O)NC(=O)[C@H](C)NC(=O)[C@H](CCC(=O)O)NC(=O)[C@@H](NC(=O)[C@H](CCC(=O)O)NC(=O)[C@H](CS)NC(=O)[C@H](CCC(=O)O)NC(=O)[C@H](CC(=O)O)NC(=O)[C@H](CC(C)C)NC(=O)[C@H](CC(N)=O)NC(=O)[C@H](CO)NC(=O)[C@H](CCC(N)=O)NC(=O)[C@H](C)NC(=O)[C@@H](NC(=O)[C@H](CCC(=O)O)NC(=O)[C@H](C)NC(=O)[C@H](CCC(=O)O)NC(=O)[C@@H](NC(=O)[C@@H]1CCCN1C(=O)[C@@H](N)CCCCN)C(C)C)C(C)C)C(C)C)C(C)C)C(=O)N1CCC[C@H]1C(=O)N[C@@H](CCC(=O)O)C(=O)N[C@@H](CC(=O)O)C(=O)N[C@H](C(=O)N[C@@H](CC(C)C)C(=O)N[C@@H](CC(N)=O)C(=O)N[C@@H](CCC(=O)O)C(=O)N[C@@H](C)C(=O)N[C@@H](CC(C)C)C(=O)N[C@@H](CC(N)=O)C(=O)N[C@@H](C)C(=O)O)C(C)C [XC-42]
- dissociation constants on immobilized thrombin, SPR (in words) (α-thrombin [1]): elevated dissociation constants
- cleavage by thrombin in solution (in words) (thrombin): majority of the peptide was uncleaved; also recorded: cleaved to a relatively small degree

Molecule: CC[C@H](C)[C@H](NC(=O)[C@@H]1CCCN1C(=O)[C@H](CCC(=O)O)NC(=O)[C@H](CCSC)NC(=O)CNC(=O)[C@H](CC(N)=O)NC(=O)CNC(=O)CNC(=O)[C@H](CCC(=O)O)NC(=O)CNC(=O)[C@H](CCCNC(=N)N)NC(=O)[C@H](CCC(N)=O)NC(=O)[C@H](Cc1ccc(O)cc1)NC(=O)[C@H](CC(C)C)NC(=O)[C@H](CCCCN)NC(=O)[C@@H]1CCCN1C(=O)[C@H](CCC(N)=O)NC(=O)[C@H](C)NC(=O)[C@@H](NC(=O)[C@H](CCC(=O)O)NC(=O)[C@H](C)NC(=O)[C@H](CCC(=O)O)NC(=O)[C@@H](NC(=O)[C@@H]1CCCN1C(=O)[C@@H](N)CCCCN)C(C)C)C(C)C)C(=O)N1CCC[C@H]1C(=O)N[C@@H](CCC(=O)O)C(=O)N[C@@H](CC(=O)O)C(=O)N[C@H](C(=O)N[C@@H](CC(C)C)C(=O)N[C@@H](CC(N)=O)C(=O)N[C@@H](CCC(=O)O)C(=O)N[C@@H](C)C(=O)N[C@@H](CC(C)C)C(=O)N[C@@H](CC(N)=O)C(=O)N[C@@H](C)C(=O)O)C(C)C [XC-43]
- dissociation constants on immobilized thrombin, SPR (in words) (α-thrombin [1]): elevated dissociation constants
- cleavage by thrombin in solution (in words) (thrombin): majority of the peptide was uncleaved; also recorded: largely intact; also recorded: cleaved to a relatively small degree
- cleavage fragment ion intensity relative to that of the uncleaved peptide (thrombin): less than 15%
- increased tail bleeding vs PBS-injected animals (Wistar rats [2]; 0.5 mg/kg intraperitoneal): 3.2 fold
- increased tail bleeding vs PBS-injected animals (Wistar rats [2]; 1 mg/kg intraperitoneal): 7.6 fold
- increased tail bleeding vs heparin-treated animals (Wistar rats [2]; 1 mg/kg intraperitoneal, heparin 50 μg/kg): 2.3 fold
- Kd (α-thrombin [3]): < 0.01 nM
- Kd (α-thrombin [4]): ≤ 2 nM

- not cleaved (α-thrombin [5]): no evidence of even partial cleavage
Molecule: KPVEAEVAQPKLYQRGEGGNGMEPIPEDVLNEALNA

- fragment found (α-thrombin [6]): LYQRGEGGNGMEPIPEDVLNEALNA
Molecule: KPVEAEVAQSNLDECEVEAEVAQPKLYQRGEGGNGMEPIPEDVLNEALNA

Molecule: heparin
- increase of ex vivo aPTT in relation to PBS-treated animals (Wistar rats [7]): twofold
